Assay results from patent US11129386B2, “Microbiocidal quinoline (thio)carboxamide derivatives” (SYNGENTA PARTICIPATIONS AG, priority 2017, dated 2021).

Experiments:
[1] = tested on: Botryotinia fuckeliana (Botrytis cinerea); assay: Botryotinia fuckeliana (Botrytis cinerea)/liquid culture (Gray mould); format: cell-based; conditions: liquid culture, growth inhibition photometrically 3-4 days after application, compared to untreated control
[2] = tested on: Glomerella lagenarium (Colletotrichum lagenarium); assay: Glomerella lagenarium (Colletotrichum lagenarium)/liquid culture (Anthracnose); format: cell-based; conditions: Colletotrichum orbiculare, 72 h, liquid culture, growth inhibition photometrically 3-4 days after application, compared to untreated control
[3] = tested on: Fusarium culmorum; assay: microbe, parasite or virus in culture; format: cell-based; conditions: read-out: control of Fusarium culmorum
[4] = tested on: Magnaporthe grisea (Pyricularia oryzae); assay: microbe, parasite or virus in culture; format: cell-based; conditions: read-out: control of Magnaporthe grisea

Compound	inhibition of growth at 20 ppm [1] [%]	inhibition of growth at 20 ppm [2] [%]	inhibition of growth at 20 ppm [3] [%]	inhibition of growth at 20 ppm [4] [%]	melting point [°C]
CC1(CC(C)(CC(F)(F)F)C(=O)Nc2cnc3c(F)cccc3c2)CC1 (centres unmarked) [Compound E1, 4,4,4-trifluoro-N-(8-fluoro-3-quinolyl)-2-methyl-2-[(1-methylcyclopropyl)methyl]butanamide]	≥ 80	≥ 80	≥ 80	≥ 80	60 to 70
C/C=C(\C)CC(C)(CC(C)C)C(=O)Nc1cnc2c(F)cccc2c1 (centres unmarked) [Compound E2]	≥ 80	≥ 80	≥ 80	≥ 80	135 to 137
CC(C)=C(C)CC(C)(CC(C)C)C(=O)Nc1cnc2c(F)cccc2c1 (centres unmarked) [Compound E3]	≥ 80	≥ 80	≥ 80	≥ 80	
CC(C)=C(F)CC(C)(CC(C)C)C(=O)Nc1cnc2ccccc2c1 (centres unmarked) [Compound E4]	≥ 80	≥ 80	≥ 80	≥ 80	
CC(C)CC(C)(CC1CC1)C(=O)Nc1cnc2c(F)cccc2c1 (centres unmarked) [Compound E5]	≥ 80	≥ 80	≥ 80	≥ 80	
CC(C)CC(C#N)(CC(C)C)C(=O)Nc1cnc2c(F)cccc2c1 [Compound E6]	≥ 80	≥ 80	≥ 80	≥ 80	
C=CCC(C)(CC(C)C)C(=O)Nc1cnc2c(F)cccc2c1 (centres unmarked) [Compound E7]	≥ 80	≥ 80	≥ 80	≥ 80	
C=C(C)CC(C)C(=O)Nc1cnc2c(F)cccc2c1 (centres unmarked) [Compound E9]	≥ 80	≥ 80	≥ 80		
CC(C)=C(F)CC(CC(C)C)C(=O)Nc1cnc2c(F)cccc2c1 (centres unmarked) [Compound E10]	≥ 80	≥ 80	≥ 80	≥ 80	103 to 105
CC(CC1CCCCC1)C(=O)Nc1cnc2c(F)cccc2c1 (centres unmarked) [Compound E11]	≥ 80	≥ 80	≥ 80	≥ 80	179 to 181
C=C(Cl)CC(C)(CC1CCCCC1)C(=O)Nc1cnc2c(F)cccc2c1 (centres unmarked) [Compound E12]	≥ 80	≥ 80	≥ 80	≥ 80	
Cc1c(NC(=O)C(C)CC(C)C)cnc2c(F)cccc12 (centres unmarked) [Compound E13]	≥ 80	≥ 80	≥ 80		
CC(CC(F)(F)F)C(=O)Nc1cnc2c(F)cccc2c1 (centres unmarked) [Compound E14]	≥ 80	≥ 80	≥ 80		
